# Values quoted from earlier work, collected in patent US20210024636A1, “COMPOSITIONS AND METHODS FOR TREATING SEXUAL DYSFUNCTION” (ChemistryRX, priority 2019, published 2021).
# Legend:
# [1] = tested on: T-cell adhesion to ICAM-1; settings: human T-cell line, in vitro
# [2] = tested on: human peripheral blood mononuclear cells; settings: in vitro
smiles,measurement,setting,value
CS(=O)(=O)c1cccc(C[C@H](NC(=O)c2c(Cl)cc3c(c2Cl)CCN(C(=O)c2ccc4ccoc4c2)C3)C(=O)O)c1 [lifitegrast],inhibition of T-cell adhesion to ICAM-1,[1],may inhibit T-cell adhesion to ICAM-1
same,inhibition of secretion of inflammatory cytokines,[2],may inhibit secretion of inflammatory cytokines
